In patent US10806743B1, “Method of administering lactitol to reduce plasma concentration of lactitol” (Braintree Laboratories, Inc., priority 2017, dated 2020):

Experiments:
[1] = Fed v. fasted administration of lactitol: plasma lactitol pharmacokinetics (LC-MS/MS); assay type: in vivo, human
Procedure: A study was performed to determine the effects of food on absorption of lactitol. Sixteen subjects (8 males and 8 females) were randomized to either Sequence A (fed/fasted) and the other half to Sequence B (fasted/fed) on Day 1 prior to dosing. Subjects returned for Day 8 dosing, 7 days following dose at Day 1, to receive study drug following the opposite food sequence, have pharmacokinetic samples collected and safety procedures performed. A standard dinner was served approximately 6 hours following dose on Day 1 or Day 8. A nighttime snack was permitted, and a standard breakfast and lunch were served prior to discharge from the clinic.
No food was allowed prior to dosing; water was consumed up to one hour before dosing and then only after one hour after dosing. Subjects assigned to Sequence A (fed/fasted) received a high-calorie and high-fat meal for lunch at 11:30 AM, as described in Table 1. Subjects receiving the high fat high calorie lunch completed the meal within 30 minutes. Dose was administered 30 minutes after the start of the meal. Subjects assigned to Sequence B (fasted/fed) continued to fast prior to dose. The staff mixed the contents of two (2) packets (approximately 21 g) with 8 oz of water. Subjects consumed the dose over 5 to 10 minutes.
Doses were administered 30 minutes after the start of the meal. Subjects assigned to Sequence B (fasted/fed) continued to fast prior to dose. The CRU mixed the contents of two (2) packets (approximately 21 g) with 8 oz of water. Subjects consumed the dose over 5 to 10 minutes.
A high-fat (approximately 50 percent of total caloric content of the meal) and high-calorie (approximately 800 to 1000 calories) meal was used. Blood samples were collected prior to dosing and at 10, 20, 30 and 60 minutes (within +/−3 minutes) and then at 2, 4, 6, 8, 10, 12, 16, 18, 20 and 24 hours (within +/−30 minutes) following dose.
An LC-MS/MS method for the determination of lactitol concentrations in human plasma has been successfully developed and validated. The calibration range of the method is 25.0 to 10,000 ng/ml for lactitol using a 50 μl sample aliquot.

[2] = system: plasma glucose; details: 25 grams, eight healthy male volunteers; cited from earlier work
[3] = system: calcium absorption; details: rats, diet containing 5% lactitol, two weeks; cited from earlier work
[4] = estimated; cited from earlier work
[5] = Adverse events in Phase 3 constipation studies; assay type: in vivo, human; details: Phase 3 studies, doses required for effective treatment of constipation
From the text: An Adverse Event (AE) is any untoward medical occurrence associated with the use of a drug in humans, whether or not considered drug related. An AE can therefore be any unfavorable and unintended sign (including a clinically significant abnormal laboratory finding), symptom, or disease temporally associated with the use of a medicinal (investigational) product.
These adverse reactions were transient and subsided rapidly upon dose adjustment or cessation.

[6] = chronic idiopathic constipation; cited from earlier work

SMILES | % CV values for λz and λ1/2, fasted v. fed ([1]; fasted and fed conditions) | time of peak plasma concentration ([1]; fasted population) | peak plasma concentration of lactitol ([1]; fasted population, approx. 21 g oral dose) | average plasma concentration of lactitol ([1]; fasted population, hour 1, approx. 21 g oral dose) | plasma concentration of lactitol ([1]; fasted population, hour 8) | plasma concentration of lactitol ([1]; fasted population, hour 12 post-dose) | plasma concentration of lactitol remained above ([1]; fasted population, until hour 8) | time of peak plasma concentration ([1]; fed population) | peak plasma concentration of lactitol ([1]; fed population (dose 30 minutes after start of high-fat, high-calorie meal)) | plasma concentration of lactitol ([1]; fed population, hour 8) | plasma concentration of lactitol ([1]; fed population, hour 12 post-dose) | AUC, fed population smaller than fasted population ([1]; fed v. fasted) | peak concentration, fed compared with fasted population ([1]; fed v. fasted) | rise in plasma glucose after ingestion [2] | calcium absorption [3] | fraction of an oral dose excreted in urine [4] | adverse events associated with administration [5] | incidence of most common adverse reactions (nausea, diarrhea, headache, abdominal pain, abdominal distention, flatulence) [6]
OC[C@@H](O)[C@@H](O[C@@H]1O[C@H](CO)[C@H](O)[C@H](O)[C@H]1O)[C@H](O)[C@@H](O)CO [lactitol] | similar | 4 h | 2412 ng/mL | 1193 ng/mL | 935 ng/mL | 218 ng/mL | above 1000 ng/mL | 4 h | 738.25 ng/mL | 387.93 ng/mL | 124.16 ng/mL | 10 times | more than three times smaller | no rise in plasma glucose | significant increase | 0.6% | flatulence, nausea, vomiting, abdominal cramping or pain and bloating | –
CCCCC(F)(F)[C@@]1(O)CC[C@H]2[C@@H](CC(=O)[C@@H]2CCCCCCC(=O)O)O1 [Lubiprostone] | – | – | – | – | – | – | – | – | – | – | – | – | – | – | – | – | – | > 4%
